Laboratory results taken from patent US20120149715A1, “COMPOUNDS AND METHODS FOR THE TREATMENT OF VIRAL INFECTIONS” (priority 2010, published 2012).

Test system: A/Vietnam/1194/04 H5N1 virus
Parameters: species or system BALB/c mice
Details: mouse, in vivo

For Nucleozin, the “animals that survived for more than 21 days” value was 90% and the “survival rate after inoculation compared with untreated controls” value (ip) was “significantly higher survival rate”.
